pEC50: −log10 of the molar value. Starred links: 1 amine or outer side, 2 acyl side, 3 side chain; linkers in the order of their positions; H or OH if unused. *: point of attachment. C(Bzl) = O=C([C@H](CSCc1ccccc1)N[*:1])[*:2]; Palmitoyl = CCCCCCCCCCCCCCCC(=O)*; Suc = O=C(CCC(=O)[*:2])[*:1]; Butyryl = CCCC(=O)*
Assays:
[1] = tested on: HIV wild type virus strain IIIB; assay: Standard Anti-Viral-Experiment (AVE), HIV-1 replication assay in MT4-LTR-EGFP cells, wild type IIIB; assay type: cell-based; details: 3 days, EGFP signal
Procedure, shortened: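 MT4-LTR-EGFP cells infected with HIV-1 IIIB, HXB2D or HXB2D gp41 mutants V38A/Q40H alongside serial 4-fold compound dilutions, 3 days at 37° C. EGFP read by laser-scanning microscopy; EC50 by linear interpolation against log concentration. Mutant results given as fold change in EC50 versus wild-type HXB2D.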

HIV-IIIB + 50% HS = assay: Standard AVE (50% Human Serum), HIV-1 replication assay in MT4-LTR-EGFP cells; assay type: cell-based; details: fold change vs EC50 in the assay without human serum
Procedure, shortened: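 MT4-LTR-EGFP cells infected with HIV-1 alongside 4-fold serial compound dilutions in 50% human serum, 3 days at 37 °C. EGFP read by laser-scanning microscopy; EC50 by linear interpolation against log concentration, reported as fold change versus EC50 without serum.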

[2] = tested on: HIV mutant virus strain HXB2D with mutation V38A in the gp41 gene; assay: Standard AVE, HXB2D site directed mutant V38A; assay type: cell-based, HIV-1; details: fold change vs wild type strain HXB2D
Excerpt: (§1) • Standard Anti-Viral-Experiment “AVE” (wild type HIV strain IIIB+HIV strain HXB2D side directed mutants V38A and Q40H)
(§2) The HIV-1 replication assay measures virus replication (HIV wild type virus strain 111B or HXB2D, or a HIV mutant virus strain HXB2D with mutation V38A or Q40H in the gp41 gene) as an induction of enhanced green fluorescent protein (EGFP) expression. The indicator MT4-LTR-EGFP cells contain an EGFP gene under the control of the HIV-1 LTR promoter sequence. Successful HIV-1 infection results in viral Tat protein expression and subsequent induction of EGFP expression. Compounds/peptides inhibiting HIV-1 infection are expected to reduce EGFP expression as compared to the untreated HIV-infected control.
(§3) Serial 4-fold dilutions of test compounds/peptides were mixed with HIV-1 (IIIB, HXB2D, or a HXB2D mutant virus (V38A or Q40H)) and MT4-LTR-EGFP cells and incubated at 37° C. After 3 days, the wells were examined for EGFP expression using an argon laser-scanning microscope. The effective compound/peptide concentration inhibiting 50% of the virus-induced EGFP signal (EC50) was determined by linear interpolation of the EGFP signal vs. logarithm of the compound concentration; (T20, C34 and Sifuvirtide were added as reference compounds). For the V38A and Q40H mutant viruses, results were reported as a fold change in EC50, as compared with a drug-susceptible wild type strain HXB2D, which forms the backbone of the mutant virus. • Standard AVE (50% Human Serum)

[3] = tested on: HIV mutant virus strain HXB2D with mutation Q40H in the gp41 gene; assay: Standard AVE, HXB2D site directed mutant Q40H; assay type: cell-based, HIV-1; details: fold change vs wild type strain HXB2D
Excerpt: as §1, §2, §3

Substance | pEC50 [1] | HIV-IIIB + 50% HS (Fold change in EC50) (HIV-IIIB + 50% HS) | HIV-HXB2D V38A mutant (fold change in EC50) [2] | HIV-HXB2D Q40H mutant (fold change in EC50) [3]
Suc-ACY-Abu-ACIEALIRAAQEQQEKNEAALR-NH2 [Peptide 49] | 8.22 | 0.6 | 33 | –
Ac-ACY-Tba-ACIEALIRAAQEQQEKNEAALR-NH2 [Peptide 60] | 8.30 | 3 | 18 | –
Ac-A-C(Bzl)-YAALIEALIRAAQEQQEKNEAALR-NH2 ({Ac-Ala-C(Bzl)}-YAALIEALIRAAQEQQEKNEAALR-NH2; SMILES CC[C@H](C)[C@H](NC(=O)[C@H](CC(C)C)NC(=O)[C@H](C)NC(=O)[C@H](CCC(=O)O)NC(=O)[C@@H](NC(=O)[C@H](CC(C)C)NC(=O)[C@H](C)NC(=O)[C@H](C)NC(=O)[C@H](Cc1ccc(O)cc1)NC(=O)[C@H](CSCc1ccccc1)NC(=O)[C@H](C)NC(C)=O)[C@@H](C)CC)C(=O)N[C@@H](CCCNC(=N)N)C(=O)N[C@@H](C)C(=O)N[C@@H](C)C(=O)N[C@@H](CCC(N)=O)C(=O)N[C@@H](CCC(=O)O)C(=O)N[C@@H](CCC(N)=O)C(=O)N[C@@H](CCC(N)=O)C(=O)N[C@@H](CCC(=O)O)C(=O)N[C@@H](CCCCN)C(=O)N[C@@H](CC(N)=O)C(=O)N[C@@H](CCC(=O)O)C(=O)N[C@@H](C)C(=O)N[C@@H](C)C(=O)N[C@@H](CC(C)C)C(=O)N[C@@H](CCCNC(=N)N)C(N)=O) [Peptide 4] | 8.00 | 2 | 74 | –
ENYLALIEALIRAAQEQQEKNEAALR [Peptide 8] | 8.70 | 0.4 | – | 900
Suc-ANYLALIEALIRAAQEQQEKNEAALK(palmitoyl)-NH2 (Suc-ANYLALIEALIRAAQEQQEKNEAALK(Palmitoyl)-NH2; SMILES CCCCCCCCCCCCCCCC(=O)NCCCC[C@H](NC(=O)[C@H](CC(C)C)NC(=O)[C@H](C)NC(=O)[C@H](C)NC(=O)[C@H](CCC(=O)O)NC(=O)[C@H](CC(N)=O)NC(=O)[C@H](CCCCN)NC(=O)[C@H](CCC(=O)O)NC(=O)[C@H](CCC(N)=O)NC(=O)[C@H](CCC(N)=O)NC(=O)[C@H](CCC(=O)O)NC(=O)[C@H](CCC(N)=O)NC(=O)[C@H](C)NC(=O)[C@H](C)NC(=O)[C@H](CCCNC(=N)N)NC(=O)[C@@H](NC(=O)[C@H](CC(C)C)NC(=O)[C@H](C)NC(=O)[C@H](CCC(=O)O)NC(=O)[C@@H](NC(=O)[C@H](CC(C)C)NC(=O)[C@H](C)NC(=O)[C@H](CC(C)C)NC(=O)[C@H](Cc1ccc(O)cc1)NC(=O)[C@H](CC(N)=O)NC(=O)[C@H](C)NC(=O)CCC(=O)O)[C@@H](C)CC)[C@@H](C)CC)C(N)=O) [Peptide 13] | 9.40 | 9 | – | 9
AC-ACYLACIEALIRRAQEQQEKNEAALR-NH2 [Peptide 51] | 8.52 | 1 | – | 93
Ac-ACYLACIEALIRKAQEQQEKNEAALR-NH2 [Peptide 48] | 8.52 | 1 | – | 62
Suc-ACYLACIEELIRKAQEQQEKNEAALr-NH2 [Peptide 34] | 8.70 | 0.3 | – | 265
SUC-ACYLACIDELIAKAQEQQEKNEAALR-NH2 (Suc-ACYLACIDELIAKAQEQQEKNEAALR-NH2; cysteine pairing not given here) [Peptide 36] | 8.70 | 0.4 | – | 373
Ac-ACYAACIEALIRAAQEQQEKNEAALR-NH2 [Peptide 66] | 8.52 | 2 | – | 231
Butanoyl-ECYLACIEELIRKAQEQQEKNEAALR-NH2 (Butyryl-ECYLACIEELIRKAQEQQEKNEAALR-NH2; cysteine pairing not given here) [Peptide 40] | 9.00 | 1 | – | 84

— US20140357577A1, “HIV Membrane Fusion Inhibitors” (priority 2011, published 2014)
